From ChEMBL document CHEMBL3286094, “Synthesis and biological evaluation of novel bisbenzimidazoles as Escherichia coli topoisomerase IA inhibitors and potential antibacterial agents” (J Med Chem, 2014)
Values after ≈ are worked out from the molar mass of the structure shown. Active and inactive are the calls of the source. No cut-off for these calls is given here.

Key:
Escherichia coli [1] = test: Antibacterial activity against tetracycline/trimethoprim-resistant Escherichia coli IST isolated from water source assessed as growth inhibition after 18 to 24 hrs by broth microdilution method
Escherichia coli [2] = test: Bactericidal activity against chloramphenicol/ampicillin/trimethoprim/ciprofloxacin/nalidixic acid-resistant Escherichia coli 59 by agar plating method; format: functional
Escherichia coli [3] = test: Antibacterial activity against ampicillin/ciprofloxacin/gentamicin/tetracycline-resistant Escherichia coli 555 assessed as growth inhibition after 18 to 24 hrs by broth microdilution method; format: functional
Escherichia coli [4] = test: Antibacterial activity against Escherichia coli DH5[alpha] assessed as growth inhibition after 18 to 24 hrs by broth microdilution method; format: functional
Escherichia coli [5] = test: Bactericidal activity against ampicillin/tetracycline/piperacillin-resistant Escherichia coli WB31 isolated from water source by agar plating method
Escherichia coli [6] = test: Bactericidal activity against ampicillin/kanamycin/trimethoprim/tetracyclin/ciprofloxacin/nalidixic acid-resistant Escherichia coli 81 by agar plating method; format: functional
Escherichia coli [7] = test: Bactericidal activity against chloroamphenicol/ampicillin/kanamycin/trimethoprim/ciprofloxacin/nalidixic acid-resistant Escherichia coli 85 by agar plating method; format: functional
Escherichia coli [8] = test: Antibacterial activity against ampicillin/chloramphenicol/ciprofloxacin/gentamicin/tetracycline-resistant Escherichia coli 401 assessed as growth inhibition after 18 to 24 hrs by broth microdilution method; format: functional
Escherichia coli [9] = test: Antibacterial activity against ampicillin/kanamycin/trimethoprim/tetracyclin/ciprofloxacin/nalidixic acid-resistant Escherichia coli 81 assessed as growth inhibition after 18 to 24 hrs by broth microdilution method; format: functional
Escherichia coli [10] = test: Antibacterial activity against ampicillin/trimethoprim/cefazolinl/piperacillin/cefuroxime/cefoxitine/cefepime/cefotaxime-resistant Escherichia coli KP21 isolated from water source assessed as growth inhibition after 18 to 24 hrs by broth microdilution method
Escherichia coli [11] = test: Antibacterial activity against ampicillin/tetracycline-resistant Escherichia coli IP18 isolated from water source assessed as growth inhibition after 18 to 24 hrs by broth microdilution method
Escherichia coli [12] = test: Antibacterial activity against cefazolinl/ampicillin/piperacillin/cefuroxime/cefepime/cefotaxime/tetracycline/trimethoprim-resistant Escherichia coli KK16 isolated from water source assessed as growth inhibition after 18 to 24 hrs by broth microdilution method
Escherichia coli [13] = test: Antibacterial activity against ampicillin/trimethoprim/nalidixic acid-resistant Escherichia coli 118 assessed as growth inhibition after 18 to 24 hrs by broth microdilution method; format: functional
Escherichia coli [14] = test: Bactericidal activity against ampicillin/tetracycline-resistant Escherichia coli IP18 isolated from water source by agar plating method
Escherichia coli [15] = test: Antibacterial activity against chloramphenicol/ampicillin/kanamycin/trimethoprim/ciprofloxacin/nalidixic acid-resistant Escherichia coli 151 assessed as growth inhibition after 18 to 24 hrs by broth microdilution method; format: functional
Escherichia coli [16] = test: Bactericidal activity against ampicillin/trimethoprim/cefazolinl/piperacillin/cefuroxime/cefoxitine/cefepime/cefotaxime-resistant Escherichia coli KP21 isolated from water source by agar plating method
Escherichia coli [17] = test: Bactericidal activity against tetracycline/trimethoprim-resistant Escherichia coli IST isolated from water source by agar plating method
Escherichia coli [18] = test: Bactericidal activity against chloramphenicol/ampicillin/kanamycin/trimethoprim/ciprofloxacin/nalidixic acid-resistant Escherichia coli 132 by agar plating method; format: functional
Escherichia coli [19] = test: Bactericidal activity against Escherichia coli ATCC 25922 by agar plating method; format: functional
Escherichia coli [20] = test: Antibacterial activity against ampicillin/trimethoprim/piperacillin-resistant Escherichia coli MKNJ isolated from water source assessed as growth inhibition after 18 to 24 hrs by broth microdilution method
Escherichia coli [21] = test: Antibacterial activity against ampicillin/chloramphenicol/tetracycline/trimethoprim/ciprofloxacin-resistant Escherichia coli KK45 isolated from water source assessed as growth inhibition after 18 to 24 hrs by broth microdilution method
Escherichia coli [22] = test: Antibacterial activity against Escherichia coli ATCC 25922 assessed as growth inhibition after 18 to 24 hrs by broth microdilution method; format: functional
Escherichia coli [23] = test: Antibacterial activity against ciprofloxacin-resistant Escherichia coli 72 assessed as growth inhibition after 18 to 24 hrs by broth microdilution method; format: functional
Escherichia coli [24] = test: Bactericidal activity against ampicillin/tetracycline/gentamicin-resistant Escherichia coli 451 by agar plating method; format: functional
Escherichia coli [25] = test: Antibacterial activity against ampicillin/tetracycline/gentamicin-resistant Escherichia coli 451 assessed as growth inhibition after 18 to 24 hrs by broth microdilution method; format: functional
Escherichia coli [26] = test: Bactericidal activity against ampicillin/trimethoprim/piperacillin-resistant Escherichia coli MKNJ isolated from water source by agar plating method
Escherichia coli [27] = test: Bactericidal activity against ciprofloxacin-resistant Escherichia coli 72 by agar plating method; format: functional
Escherichia coli [28] = test: Inhibition of Escherichia coli DNA gyrase using relaxed pHOT1 plasmid DNA as substrate assessed as inhibition of DNA supercoiling up to 100 uM after 30 mins by agarose gel electrophoresis
Escherichia coli [29] = test: Bactericidal activity against cefazolinl/ampicillin/piperacillin/cefuroxime/cefepime/cefotaxime/tetracycline/trimethoprim-resistant Escherichia coli KK16 isolated from water source by agar plating method
Escherichia coli [30] = test: Antibacterial activity against chloroamphenicol/ampicillin/kanamycin/trimethoprim/ciprofloxacin/nalidixic acid-resistant Escherichia coli 85 assessed as growth inhibition after 18 to 24 hrs by broth microdilution method; format: functional
Escherichia coli [31] = test: Antibacterial activity against multidrug-resistant Escherichia coli IP9 isolated from water source assessed as growth inhibition after 18 to 24 hrs by broth microdilution method
Escherichia coli [32] = test: Antibacterial activity against chloramphenicol/ampicillin/kanamycin/trimethoprim/ciprofloxacin/nalidixic acid-resistant Escherichia coli 132 assessed as growth inhibition after 18 to 24 hrs by broth microdilution method; format: functional
Escherichia coli [33] = test: Antibacterial activity against gentamicin/kanamycin/tetracycline/nalidixic acid-resistant Escherichia coli 360 assessed as growth inhibition after 18 to 24 hrs by broth microdilution method; format: functional
Escherichia coli [34] = test: Antibacterial activity against cefazolinl/ampicillin/piperacillin/cefuroxime/cefepime/cefotaxime/tetracycline/ciprofloxacin-resistant Escherichia coli NG3 isolated from water source assessed as growth inhibition after 18 to 24 hrs by broth microdilution method
Escherichia coli [35] = test: Bactericidal activity against ampicillin/ciprofloxacin/gentamicin/tetracycline-resistant Escherichia coli 555 by agar plating method; format: functional

COc1ccc(-c2nc3ccc(-c4nc5ccc(N6CCN(c7ccncc7)CC6)cc5[nH]4)cc3[nH]2)cc1OC
MIC50 (Escherichia coli [1]): 0.5 µg/mL (≈ 0.941 µM)
MIC90 (Escherichia coli [1]): 0.8 µg/mL (≈ 1.5 µM)
MBC (Escherichia coli [2]): 4 µg/mL (≈ 7.52 µM)
MIC50 (Escherichia coli [3]): 16 µg/mL (≈ 30.1 µM)
MIC90 (Escherichia coli [3]): 58.6 µg/mL (≈ 110 µM)
MIC50 (Escherichia coli [4]): 0.5 µg/mL (≈ 0.941 µM)
MIC90 (Escherichia coli [4]): 1.8 µg/mL (≈ 3.39 µM)
MBC (Escherichia coli [5]): 4 µg/mL (≈ 7.52 µM)
MBC (Escherichia coli [6]): 4 µg/mL (≈ 7.52 µM)
MBC (Escherichia coli [7]): 4 µg/mL (≈ 7.52 µM)
MIC50 (Escherichia coli [8]): 1 µg/mL (≈ 1.88 µM)
MIC90 (Escherichia coli [8]): 1.6 µg/mL (≈ 3.01 µM)
MIC50 (Escherichia coli [9]): 2 µg/mL (≈ 3.76 µM)
MIC90 (Escherichia coli [9]): 3.1 µg/mL (≈ 5.83 µM)
MIC50 (Escherichia coli [10]): 2 µg/mL (≈ 3.76 µM)
MIC90 (Escherichia coli [10]): 3.6 µg/mL (≈ 6.77 µM)
MIC50 (Escherichia coli [11]): 2 µg/mL (≈ 3.76 µM)
MIC90 (Escherichia coli [11]): 3.7 µg/mL (≈ 6.96 µM)
MIC50 (Escherichia coli [12]): 1 µg/mL (≈ 1.88 µM)
MIC90 (Escherichia coli [12]): 1.7 µg/mL (≈ 3.2 µM)
MIC50 (Escherichia coli [13]): 1 µg/mL (≈ 1.88 µM)
MIC90 (Escherichia coli [13]): 1.7 µg/mL (≈ 3.2 µM)
MBC (Escherichia coli [14]): 4 µg/mL (≈ 7.52 µM)
MIC50 (Escherichia coli [15]): 1 µg/mL (≈ 1.88 µM)
MIC90 (Escherichia coli [15]): 1.7 µg/mL (≈ 3.2 µM)
MBC (Escherichia coli [16]): 4 µg/mL (≈ 7.52 µM)
MBC (Escherichia coli [17]): 1 µg/mL (≈ 1.88 µM)
MBC (Escherichia coli [18]): 4 µg/mL (≈ 7.52 µM)
MBC (Escherichia coli [19]): 4 µg/mL (≈ 7.52 µM)
MIC50 (Escherichia coli [20]): 2 µg/mL (≈ 3.76 µM)
MIC90 (Escherichia coli [20]): 3.7 µg/mL (≈ 6.96 µM)
MIC50 (Escherichia coli [21]): 2 µg/mL (≈ 3.76 µM)
MIC90 (Escherichia coli [21]): 3.7 µg/mL (≈ 6.96 µM)
MIC50 (Escherichia coli [22]): 2 µg/mL (≈ 3.76 µM)
MIC90 (Escherichia coli [22]): 3.7 µg/mL (≈ 6.96 µM)
MIC50 (Escherichia coli [23]): 1 µg/mL (≈ 1.88 µM)
MIC90 (Escherichia coli [23]): 1.6 µg/mL (≈ 3.01 µM)
MBC (Escherichia coli [24]): 4 µg/mL (≈ 7.52 µM)
MIC50 (Escherichia coli [25]): 2 µg/mL (≈ 3.76 µM)
MIC90 (Escherichia coli [25]): 3.6 µg/mL (≈ 6.77 µM)
MBC (Escherichia coli [26]): 4 µg/mL (≈ 7.52 µM)
MBC (Escherichia coli [27]): 2 µg/mL (≈ 3.76 µM)
inhibition (Escherichia coli [28]): inactive
MBC (Escherichia coli [29]): 2 µg/mL (≈ 3.76 µM)
MIC50 (Escherichia coli [30]): 2 µg/mL (≈ 3.76 µM)
MIC90 (Escherichia coli [30]): 3.6 µg/mL (≈ 6.77 µM)
MIC50 (Escherichia coli [31]): 2 µg/mL (≈ 3.76 µM)
MIC90 (Escherichia coli [31]): 3.6 µg/mL (≈ 6.77 µM)
MIC50 (Escherichia coli [32]): 2 µg/mL (≈ 3.76 µM)
MIC90 (Escherichia coli [32]): 3.7 µg/mL (≈ 6.96 µM)
MIC50 (Escherichia coli [33]): 1 µg/mL (≈ 1.88 µM)
MIC90 (Escherichia coli [33]): 1.7 µg/mL (≈ 3.2 µM)
MIC50 (Escherichia coli [34]): 1 µg/mL (≈ 1.88 µM)
MIC90 (Escherichia coli [34]): 1.8 µg/mL (≈ 3.39 µM)
MBC (Escherichia coli [35]): 64 µg/mL (≈ 120 µM)
